Legend:
Type in all cases: biochemical
[1] = molecular target: T1, BTK (Homo sapiens, UniProt Q06187); assay: Btk in vitro inhibitory activity (TR-FRET, mobility shift or radiometric filter binding kinase assay); conditions: determined using one of the methods outlined in Example 47a, 47b, and 47c
T1 construct: purified from insect cells as a full-length construct containing a N-terminal 6×-His tag; His6 (N); made in house; host or cells: insect cells (baculovirus, Sf21)
Protocol: (§1) Btk kinase activity is determined using a time-resolved fluorescence resonance energy transfer (TR-FRET) methodology. Measurements are performed in a reaction volume of 50 μL using 96-well assay plates. […] The reaction is quenched by the addition of 1.2 equivalents of EDTA (relative to divalent cation) in 25 μL of 1× Lance buffer (Perkin-Elmer). Streptavidin-APC (Perkin-Elmer) and Eu-labeled p-Tyr100 antibody (Perkin-Elmer) in 1× Lance buffer are added in a 25 μL volume to give final concentrations of 100 nM and 2.5 nM, respectively, and the mixture is allowed to incubate for one hour. The TR-FRET signal is measured on a multimode plate reader with an excitation wavelength (λEx) of 330 nm and detection wavelengths (λEm) of 615 and 665 nm. Activity is determined by the ratio of the fluorescence at 665 nm to that at 615 nm. For each compound, enzyme activity is measured at various concentrations of compound. Negative control reactions are performed in the absence of inhibitor in replicates of six, and two no-enzyme controls are used to determine baseline fluorescence levels. Inhibition constants, Ki(app), ware obtained using the program BatchKi (Kuzmic et al. (2000), Anal. Biochem. 286:45-50). IC50s are obtained according to the equation: IC50={Ki(app)/(1+[ATP]/Km^ATP)}+[E]total/2;
(§2) For all kinases, [ATP]=Km^ATP, [Btk]total=0.5 nM and [Lck]total=6 nM.
Kinase activity is measured in vitro using electrophoretic mobility shift assay. The kinase reactions are assembled in a total volume of 25 μL in 384 well plates. […] The reaction is incubated for one hour and is quenched by the addition of 45 μL of termination buffer (100 mM HEPES, pH7.5, 0.01% Triton X-100, 30 mM EDTA). The terminated reactions are analyzed using 12 channel LabChip® 3000 microfluidic detection instrument (Caliper Life Sciences). The enzymatic phosphorylation of the peptide results in a change in net charge, enabling electrophoretic separation of product from substrate peptide. As substrate and product peptides are separated, two peaks of fluorescence are observed. Change in the relative fluorescence intensity of the substrate and product peaks is the parameter measured, reflecting enzyme activity. In the presence of an inhibitor, the ratio between product and substrate is altered: the signal of the product decreases, while the signal of the substrate increases.
Activity in each sample is determined as the product to sum ratio (PSR): P/(S+P), where P is the peak height of the product peptide and S is the peak height of the substrate peptide. For each compound, enzyme activity is measured at various concentrations (12 concentrations of compound spaced by 3× dilution intervals). Negative control samples (0%-inhibition in the absence of inhibitor) and positive control samples (100%-inhibition, in the presence of 20 mM EDTA) are assembled in replicates of four and are used to calculate %-inhibition values for each inhibitor at each concentration. Percent inhibition (Pinh) is determined using following equation: Pinh=(PSR0%−PSRinh)/(PSR0%−PSR100%)*100,
where PSRmh is the product sum ratio in the presence of inhibitor, PSR0% is the average product sum ration in the absence of inhibitor and PSR100% is the average product sum ratio in 100%-inhibition control samples;
The IC50 values of inhibitors are determined by 4 parameter sigmoidal dose-response model fitting of the inhibition curves (Pinh versus inhibitor concentration) using XLfit 4 software.
Human Btk kinase (Genbank accession # NP_000052) was purified from insect cells as a full-length construct containing a N-terminal 6×-His tag. Btk kinase activity was determined using a radiometric filter binding assay. Measurements are performed in a low μL reaction volume 384-well assay plates. […]

[2] = molecular target: T2, Jak3 (Homo sapiens, UniProt P52333); assay: Jak3 kinase inhibition (in vitro kinase assay)
T2 sequence (P52333 1-1124): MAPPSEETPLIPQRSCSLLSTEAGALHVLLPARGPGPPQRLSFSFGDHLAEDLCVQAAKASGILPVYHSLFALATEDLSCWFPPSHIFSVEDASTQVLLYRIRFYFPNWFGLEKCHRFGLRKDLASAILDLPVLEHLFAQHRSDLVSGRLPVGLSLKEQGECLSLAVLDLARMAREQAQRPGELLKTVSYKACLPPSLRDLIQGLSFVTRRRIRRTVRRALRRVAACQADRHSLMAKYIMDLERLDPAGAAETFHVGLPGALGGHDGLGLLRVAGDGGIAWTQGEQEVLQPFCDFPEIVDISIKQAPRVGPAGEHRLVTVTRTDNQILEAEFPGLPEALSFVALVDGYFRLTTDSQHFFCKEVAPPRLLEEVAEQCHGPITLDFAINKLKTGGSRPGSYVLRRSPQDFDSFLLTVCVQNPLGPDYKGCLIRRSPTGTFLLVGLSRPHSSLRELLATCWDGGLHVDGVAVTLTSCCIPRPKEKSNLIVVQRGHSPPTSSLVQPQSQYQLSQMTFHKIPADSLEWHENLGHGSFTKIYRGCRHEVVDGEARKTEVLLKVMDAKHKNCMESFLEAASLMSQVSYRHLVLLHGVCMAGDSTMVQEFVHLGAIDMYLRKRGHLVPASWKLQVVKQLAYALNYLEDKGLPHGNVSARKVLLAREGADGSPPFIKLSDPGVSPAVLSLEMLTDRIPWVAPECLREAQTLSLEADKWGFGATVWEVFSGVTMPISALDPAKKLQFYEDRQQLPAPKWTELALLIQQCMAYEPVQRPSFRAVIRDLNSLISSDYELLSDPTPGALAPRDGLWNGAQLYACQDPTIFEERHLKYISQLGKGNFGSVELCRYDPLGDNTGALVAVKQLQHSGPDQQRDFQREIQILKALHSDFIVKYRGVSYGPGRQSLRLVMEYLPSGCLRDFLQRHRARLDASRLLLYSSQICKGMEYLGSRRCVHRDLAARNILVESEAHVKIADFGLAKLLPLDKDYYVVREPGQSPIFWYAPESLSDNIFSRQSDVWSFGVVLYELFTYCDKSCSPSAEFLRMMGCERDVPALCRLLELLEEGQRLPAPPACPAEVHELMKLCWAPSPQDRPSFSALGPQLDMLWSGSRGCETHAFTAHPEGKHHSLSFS

[3] = molecular target: Lck (Homo sapiens, UniProt P06239); assay: Lck kinase inhibition (in vitro kinase assay)
Protocol: as §1, §2

[4] = molecular target: EGFR (Homo sapiens, UniProt P00533); assay: EGFR kinase inhibition (in vitro kinase assay)
EGFR, sequence (P00533 25-1210, species assumed): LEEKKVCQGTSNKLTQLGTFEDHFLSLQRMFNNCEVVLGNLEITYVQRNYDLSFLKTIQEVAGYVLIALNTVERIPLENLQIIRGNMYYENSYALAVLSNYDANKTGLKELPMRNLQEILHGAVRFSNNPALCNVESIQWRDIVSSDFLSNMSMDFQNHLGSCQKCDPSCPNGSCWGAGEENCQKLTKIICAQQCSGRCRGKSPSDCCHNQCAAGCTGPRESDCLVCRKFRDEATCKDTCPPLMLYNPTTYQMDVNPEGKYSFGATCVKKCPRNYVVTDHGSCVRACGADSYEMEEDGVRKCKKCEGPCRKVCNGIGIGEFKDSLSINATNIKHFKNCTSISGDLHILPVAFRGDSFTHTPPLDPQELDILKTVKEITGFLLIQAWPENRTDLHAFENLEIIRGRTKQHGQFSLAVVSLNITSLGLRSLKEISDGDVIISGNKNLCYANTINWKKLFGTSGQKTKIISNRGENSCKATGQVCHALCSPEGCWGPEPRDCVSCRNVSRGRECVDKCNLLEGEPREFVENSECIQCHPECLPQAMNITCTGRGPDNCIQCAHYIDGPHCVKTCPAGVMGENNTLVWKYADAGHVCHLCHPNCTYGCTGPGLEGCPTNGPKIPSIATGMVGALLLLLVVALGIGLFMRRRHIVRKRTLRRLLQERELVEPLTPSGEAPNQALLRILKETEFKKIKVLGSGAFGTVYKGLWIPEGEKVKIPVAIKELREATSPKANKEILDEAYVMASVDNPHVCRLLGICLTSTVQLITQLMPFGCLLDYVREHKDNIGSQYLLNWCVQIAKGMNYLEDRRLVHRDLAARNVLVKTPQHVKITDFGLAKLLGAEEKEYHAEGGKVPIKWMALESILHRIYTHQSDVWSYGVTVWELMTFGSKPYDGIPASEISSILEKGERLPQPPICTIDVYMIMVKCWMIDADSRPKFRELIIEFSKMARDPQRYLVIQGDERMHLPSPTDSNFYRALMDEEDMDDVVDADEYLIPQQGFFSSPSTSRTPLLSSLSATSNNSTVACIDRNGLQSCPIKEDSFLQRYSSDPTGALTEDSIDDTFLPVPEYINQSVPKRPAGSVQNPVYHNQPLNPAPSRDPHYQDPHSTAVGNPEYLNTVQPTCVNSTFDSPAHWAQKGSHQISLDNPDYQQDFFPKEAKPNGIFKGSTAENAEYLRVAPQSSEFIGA

Lck, sequence (P06239 whole entry, species assumed): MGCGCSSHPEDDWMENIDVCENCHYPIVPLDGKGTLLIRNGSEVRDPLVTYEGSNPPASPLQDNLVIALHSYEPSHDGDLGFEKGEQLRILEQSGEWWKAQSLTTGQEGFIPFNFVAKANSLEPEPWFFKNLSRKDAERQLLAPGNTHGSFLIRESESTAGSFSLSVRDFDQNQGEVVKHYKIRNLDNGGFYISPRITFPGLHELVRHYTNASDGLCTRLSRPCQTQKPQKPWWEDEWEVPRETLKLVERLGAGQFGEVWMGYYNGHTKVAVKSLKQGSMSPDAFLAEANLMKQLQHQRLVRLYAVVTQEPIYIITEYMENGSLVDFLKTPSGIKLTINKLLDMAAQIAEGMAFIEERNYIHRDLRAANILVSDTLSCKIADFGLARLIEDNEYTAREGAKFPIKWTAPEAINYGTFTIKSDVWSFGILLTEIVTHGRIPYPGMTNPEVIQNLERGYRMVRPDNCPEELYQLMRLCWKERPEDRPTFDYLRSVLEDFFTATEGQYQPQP
T1 sequence (Q06187 whole entry): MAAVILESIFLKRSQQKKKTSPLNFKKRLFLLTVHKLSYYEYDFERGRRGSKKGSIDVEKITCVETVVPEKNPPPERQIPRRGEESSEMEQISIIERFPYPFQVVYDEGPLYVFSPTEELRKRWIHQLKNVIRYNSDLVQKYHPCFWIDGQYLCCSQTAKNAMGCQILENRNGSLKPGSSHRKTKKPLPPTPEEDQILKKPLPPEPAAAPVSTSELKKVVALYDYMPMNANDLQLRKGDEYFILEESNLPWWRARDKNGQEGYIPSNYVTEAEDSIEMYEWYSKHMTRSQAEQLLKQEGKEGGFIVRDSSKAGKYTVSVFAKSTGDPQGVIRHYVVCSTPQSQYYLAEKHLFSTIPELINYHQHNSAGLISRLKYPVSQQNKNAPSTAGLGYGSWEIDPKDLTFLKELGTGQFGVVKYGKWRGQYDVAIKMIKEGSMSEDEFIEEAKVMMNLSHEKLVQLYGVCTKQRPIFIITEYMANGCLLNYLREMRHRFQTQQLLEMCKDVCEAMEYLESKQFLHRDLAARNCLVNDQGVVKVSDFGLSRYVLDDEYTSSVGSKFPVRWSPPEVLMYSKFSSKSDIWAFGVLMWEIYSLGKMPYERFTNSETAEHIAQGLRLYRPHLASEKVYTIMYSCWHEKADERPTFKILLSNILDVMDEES

| SMILES | IC50 [1] [nM] | IC50 [2] [nM] | IC50 [3] [nM] | IC50 [4] [nM] |
| --- | --- | --- | --- | --- |
| Nc1ncnc2c1c(-c1ccc(C(=O)Nc3cc(C(F)(F)F)ccn3)cc1)nn2[C@@H]1CCN(C(=O)/C=C/CNC2CC2)C1 [Example 24, (R,E)-4-(4-amino-1-(1-(4-(cyclopropylamino)but-2-enoyl)pyrrolidin-3-yl)-1H-pyrazolo[3,4-d]pyrimidin-3-yl)-N-(4-(trifluoromethyl)pyridin-2-yl)benzamide] | < 1 | > 10000 | < 100 | < 100 |
| C=CC(=O)N[C@H]1CC[C@H](n2nc(-c3ccc(C(=O)Nc4cc(C)ccn4)cc3)c3c(N)ncnc32)CC1 [Example 27, 4-(1-((1,4-trans)-4-acrylamidocyclohexyl)-4-amino-1H-pyrazolo[3,4-d]pyrimidin-3-yl)-N-(4-methylpyridin-2-yl)benzamide] | < 1 | > 10000 | > 10000 | – |
| CN(C/C=C/C(=O)N1CC[C@@H](n2nc(-c3ccc(C(=O)Nc4nccs4)cc3)c3c(N)ncnc32)C1)C1CC1 [Example 13, (R,E)-4-(4-amino-1-(1-(4-(cyclopropyl(methyl)amino)but-2-enoyl)pyrrolidin-3-yl)-1H-pyrazolo[3,4-d]pyrimidin-3-yl)-N-(thiazol-2-yl)benzamide] | < 100 | < 100 | < 100 | < 1 |
| Cc1ccnc(NC(=O)c2ccc(-c3nn([C@@H]4CCN(C(=O)/C=C/CNC5CC5)C4)c4ncnc(N)c34)cc2)c1 [Example 23, (R,E)-4-(4-amino-1-(1-(4-(cyclopropylamino)but-2-enoyl)pyrrolidin-3-yl)-1H-pyrazolo[3,4-d]pyrimidin-3-yl)-N-(4-methylpyridin-2-yl)benzamide] | < 1 | > 10000 | 100 to 1000 | 100 to 1000 |
| CNC/C=C/C(=O)N1CC[C@@H](n2nc(-c3ccc(C(=O)Nc4cc(C)ccn4)cc3)c3c(N)ncnc32)C1 [Example 22, (R,E)-4-(4-amino-1-(1-(4-(methylamino)but-2-enoyl)pyrrolidin-3-yl)-1H-pyrazolo[3,4-d]pyrimidin-3-yl)-N-(4-methylpyridin-2-yl)benzamide] | < 1 | > 10000 | 100 to 1000 | 100 to 1000 |
| CN(C/C=C/C(=O)N1CC[C@@H](n2nc(-c3ccc(C(=O)Nc4ncc(C#N)s4)cc3)c3c(N)ncnc32)C1)C1CC1 [Example 12, (R,E)-4-(4-amino-1-(1-(4-(cyclopropyl(methyl)amino)but-2-enoyl)pyrrolidin-3-yl)-1H-pyrazolo[3,4-d]pyrimidin-3-yl)-N-(5-cyanothiazol-2-yl)benzamide] | < 100 | < 1 | < 100 | < 100 |
| Cc1ccnc(NC(=O)c2ccc(-c3nn([C@H]4CC[C@H](NC(=O)/C=C/CN(C)C)CC4)c4ncnc(N)c34)cc2)c1 [Example 28, 4-(4-amino-1-((1,4-trans)-4-((E)-4-(dimethylamino)but-2-enamido)cyclohexyl)-1H-pyrazolo[3,4-d]pyrimidin-3-yl)-N-(4-methylpyridin-2-yl)benzamide] | < 100 | > 10000 | > 10000 | 100 to 1000 |
| CC#CC(=O)N[C@H]1CC[C@H](n2nc(-c3ccc(C(=O)Nc4cc(C(F)(F)F)ccn4)cc3)c3c(N)ncnc32)CC1 [Example 19, 4-(4-amino-1-((1,4-trans)-4-but-2-ynamidocyclohexyl)-1H-pyrazolo[3,4-d]pyrimidin-3-yl)-N-(4-(trifluoromethyl)pyridin-2-yl)benzamide] | < 1 | > 10000 | < 100 | 100 to 1000 |
| CN(C/C=C/C(=O)N1CC[C@@H](n2nc(-c3ccc(C(=O)Nc4ccccn4)cc3)c3c(N)ncnc32)C1)C1CC1 [Example 15, (R,E)-4-(4-amino-1-(1-(4-(cyclopropyl(methyl)amino)but-2-enoyl)pyrrolidin-3-yl)-1H-pyrazolo[3,4-d]pyrimidin-3-yl)-N-(pyridin-2-yl)benzamide] | < 100 | – | 1000 to 10000 | 100 to 1000 |
| CCCc1cnc(NC(=O)c2ccc(-c3nn([C@@H]4CCN(C(=O)/C=C/CN(C)C5CC5)C4)c4ncnc(N)c34)cc2)s1 [Example 10, (R,E)-4-(4-amino-1-(1-(4-(cyclopropyl(methyl)amino)but-2-enoyl)pyrrolidin-3-yl)-1H-pyrazolo[3,4-d]pyrimidin-3-yl)-N-(5-propylthiazol-2-yl)benzamide] | < 1 | – | < 100 | 100 to 1000 |
| CN(C)C/C=C/C(=O)N1CC[C@@H](n2nc(-c3ccc(C(=O)Nc4cc(C#N)ccn4)cc3)c3c(N)ncnc32)C1 [Example 32, (R,E)-4-(4-amino-1-(1-(4-(dimethylamino)but-2-enoyl)pyrrolidin-3-yl)-1H-pyrazolo[3,4-d]pyrimidin-3-yl)-N-(4-cyanopyridin-2-yl)benzamide] | < 1 | – | 100 to 1000 | 100 to 1000 |
| Cc1cnc(NC(=O)c2ccc(-c3nn([C@@H]4CCN(C(=O)/C=C/CN(C)C5CC5)C4)c4ncnc(N)c34)cc2)s1 [Example 6, (R,E)-4-(4-amino-1-(1-(4-(cyclopropyl(methyl)amino)but-2-enoyl)pyrrolidin-3-yl)-1H-pyrazolo[3,4-d]pyrimidin-3-yl)-N-(5-methylthiazol-2-yl)benzamide] | < 100 | – | 100 to 1000 | 1000 to 10000 |
| CN(C/C=C/C(=O)N1CC[C@@H](n2nc(-c3ccc(C(=O)Nc4cc(C5CC5)ccn4)cc3)c3c(N)ncnc32)C1)C1CC1 [Example 17, (R,E)-4-(4-amino-1-(1-(4-(cyclopropyl(methyl)amino)but-2-enoyl)pyrrolidin-3-yl)-1H-pyrazolo[3,4-d]pyrimidin-3-yl)-N-(4-cyclopropylpyridin-2-yl)benzamide] | < 1 | – | 100 to 1000 | 1000 to 10000 |
